Source: the kinase profiling compilation of Christmann-Franck et al. (2016)

Columns and labels:
Assay in all cases: radiometric filter-binding kinase assay, Kinase HotSpot
Conditions in all cases: compound 0.5 µM; ATP 10 µM
STK17A (human) = STK17A (human) (UniProt Q9UEE5)
KDR (human) = KDR (human) (UniProt P35968)
EPHB2 (human) = EPHB2 (human) (UniProt P29323)
SLK (human) = SLK (human) (UniProt Q9H2G2)
RPS6KA5 KD2 (human) = RPS6KA5 KD2 (human) (UniProt O75582)
GRK5 (human) = GRK5 (human) (UniProt P34947)
NEK9 (human) = NEK9 (human) (UniProt Q8TD19)
ALK (human) = ALK (human) (UniProt Q9UM73)
ALK (human), sequence (Q9UM73 whole entry, looked up): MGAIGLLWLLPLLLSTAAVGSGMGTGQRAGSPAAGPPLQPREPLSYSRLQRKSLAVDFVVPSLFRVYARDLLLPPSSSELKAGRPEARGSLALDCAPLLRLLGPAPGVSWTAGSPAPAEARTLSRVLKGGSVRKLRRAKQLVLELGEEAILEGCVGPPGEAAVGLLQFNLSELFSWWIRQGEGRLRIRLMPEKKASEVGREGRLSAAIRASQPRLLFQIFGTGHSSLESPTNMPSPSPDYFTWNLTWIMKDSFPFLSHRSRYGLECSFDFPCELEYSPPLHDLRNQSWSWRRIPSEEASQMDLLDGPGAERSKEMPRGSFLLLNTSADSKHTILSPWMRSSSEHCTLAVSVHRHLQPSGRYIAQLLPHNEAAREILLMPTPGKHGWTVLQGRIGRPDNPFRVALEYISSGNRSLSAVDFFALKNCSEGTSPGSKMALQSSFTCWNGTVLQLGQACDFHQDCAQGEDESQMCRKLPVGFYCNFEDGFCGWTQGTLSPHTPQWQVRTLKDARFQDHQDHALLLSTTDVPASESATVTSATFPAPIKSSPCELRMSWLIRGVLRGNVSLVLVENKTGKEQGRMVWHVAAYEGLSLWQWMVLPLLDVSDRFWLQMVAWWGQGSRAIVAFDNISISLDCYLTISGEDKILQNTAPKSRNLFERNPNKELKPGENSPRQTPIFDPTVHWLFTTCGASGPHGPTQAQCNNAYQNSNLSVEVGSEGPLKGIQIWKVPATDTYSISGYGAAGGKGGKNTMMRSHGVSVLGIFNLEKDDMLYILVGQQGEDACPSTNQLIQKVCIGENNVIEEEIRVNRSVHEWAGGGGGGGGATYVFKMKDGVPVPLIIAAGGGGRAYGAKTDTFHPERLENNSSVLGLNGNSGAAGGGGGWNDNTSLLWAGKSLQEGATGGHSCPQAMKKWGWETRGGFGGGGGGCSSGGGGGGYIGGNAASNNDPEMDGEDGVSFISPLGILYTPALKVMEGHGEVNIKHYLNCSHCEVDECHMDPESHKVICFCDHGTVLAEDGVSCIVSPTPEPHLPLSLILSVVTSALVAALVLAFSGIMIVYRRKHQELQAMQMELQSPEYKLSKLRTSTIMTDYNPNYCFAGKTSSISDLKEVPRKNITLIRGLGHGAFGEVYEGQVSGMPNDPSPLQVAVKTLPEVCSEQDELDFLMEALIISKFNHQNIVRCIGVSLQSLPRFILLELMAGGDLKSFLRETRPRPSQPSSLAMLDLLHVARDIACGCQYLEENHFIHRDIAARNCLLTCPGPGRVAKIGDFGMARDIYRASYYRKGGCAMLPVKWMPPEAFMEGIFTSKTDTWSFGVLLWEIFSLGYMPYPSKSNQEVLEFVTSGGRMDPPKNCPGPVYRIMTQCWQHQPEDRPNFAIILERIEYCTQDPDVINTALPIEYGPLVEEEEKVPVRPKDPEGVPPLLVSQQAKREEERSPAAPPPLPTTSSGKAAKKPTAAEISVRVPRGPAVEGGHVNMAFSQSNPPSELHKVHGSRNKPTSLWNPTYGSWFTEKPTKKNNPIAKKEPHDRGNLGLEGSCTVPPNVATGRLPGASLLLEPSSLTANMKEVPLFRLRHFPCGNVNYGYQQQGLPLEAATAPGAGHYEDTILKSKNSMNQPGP

TXK (human) = TXK (human) (UniProt P42681)
TXK (human), sequence (P42681 whole entry, looked up): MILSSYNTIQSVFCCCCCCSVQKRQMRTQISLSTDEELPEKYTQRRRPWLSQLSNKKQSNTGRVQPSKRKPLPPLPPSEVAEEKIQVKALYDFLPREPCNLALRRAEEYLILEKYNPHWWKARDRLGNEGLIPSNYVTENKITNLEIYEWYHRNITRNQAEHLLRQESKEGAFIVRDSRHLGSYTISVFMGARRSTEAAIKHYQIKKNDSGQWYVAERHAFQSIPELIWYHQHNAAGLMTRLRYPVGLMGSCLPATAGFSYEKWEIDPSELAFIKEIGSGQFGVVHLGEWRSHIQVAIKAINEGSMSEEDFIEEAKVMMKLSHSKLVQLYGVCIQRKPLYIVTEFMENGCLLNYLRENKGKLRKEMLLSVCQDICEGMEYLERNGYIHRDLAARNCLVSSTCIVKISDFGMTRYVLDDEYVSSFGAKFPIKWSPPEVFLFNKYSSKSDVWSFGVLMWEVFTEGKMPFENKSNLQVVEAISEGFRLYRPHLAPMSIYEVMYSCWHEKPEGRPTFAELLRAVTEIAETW

TEK (human) = TEK (human) (UniProt Q02763)
DYRK1B (human) = DYRK1B (human) (UniProt Q9Y463)
PBK (human) = PBK (human) (UniProt Q96KB5)
FGFR2 (human) = FGFR2 (human) (UniProt P21802)
BTK (human) = BTK (human) (UniProt Q06187)
PNCK (human) = PNCK (human) (UniProt Q6P2M8)
SRPK1 (human) = SRPK1 (human) (UniProt Q96SB4)
MAP2K2 (human) = MAP2K2 (human) (UniProt P36507)
ABL2 (human) = ABL2 (human) (UniProt P42684)
PRKCI (human) = PRKCI (human) (UniProt P41743)
PRKCI (human), sequence (P41743 whole entry, looked up): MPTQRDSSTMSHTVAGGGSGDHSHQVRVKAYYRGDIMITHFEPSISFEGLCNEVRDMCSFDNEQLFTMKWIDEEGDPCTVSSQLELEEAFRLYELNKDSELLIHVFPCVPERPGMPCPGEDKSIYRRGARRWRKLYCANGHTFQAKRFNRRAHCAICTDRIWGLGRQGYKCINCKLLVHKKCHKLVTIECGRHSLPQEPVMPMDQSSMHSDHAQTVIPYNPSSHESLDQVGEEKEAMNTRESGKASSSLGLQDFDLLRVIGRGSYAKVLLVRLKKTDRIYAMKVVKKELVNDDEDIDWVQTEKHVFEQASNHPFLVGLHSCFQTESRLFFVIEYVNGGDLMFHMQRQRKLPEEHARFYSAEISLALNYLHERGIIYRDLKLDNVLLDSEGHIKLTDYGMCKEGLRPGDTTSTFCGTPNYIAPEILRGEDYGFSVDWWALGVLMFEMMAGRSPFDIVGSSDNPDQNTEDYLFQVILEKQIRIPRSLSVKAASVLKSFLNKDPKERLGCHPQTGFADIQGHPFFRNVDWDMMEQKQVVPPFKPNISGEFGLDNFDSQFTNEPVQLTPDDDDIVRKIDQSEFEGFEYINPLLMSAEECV

RPS6KB2 (human) = RPS6KB2 (human) (UniProt Q9UBS0)
CDK1 CCNB1 (human) = CDK1 CCNB1 (human) (UniProt P06493+P14635)
DSTYK (human) = DSTYK (human) (UniProt Q6XUX3)
FLT1 (human) = FLT1 (human) (UniProt P17948)
AKT1 (human) = AKT1 (human) (UniProt P31749)
AURKA (human) = AURKA (human) (UniProt O14965)
CDK6 CCND3 (human) = CDK6 CCND3 (human) (UniProt P30281+Q00534)
GSK3A (human) = GSK3A (human) (UniProt P49840)
NEK4 (human) = NEK4 (human) (UniProt P51957)
PRKG2 (human) = PRKG2 (human) (UniProt Q13237)
CAMK2A (human) = CAMK2A (human) (UniProt Q9UQM7)
[1] = molecular target: TYK2 JH1 catalytic (human) (UniProt P29597)
NTRK3 (human) = NTRK3 (human) (UniProt Q16288)
IRAK4 (human) = IRAK4 (human) (UniProt Q9NWZ3)
MAPK11 (human) = MAPK11 (human) (UniProt Q15759)
CDC42BPB (human) = CDC42BPB (human) (UniProt Q9Y5S2)
PAK2 (human) = PAK2 (human) (UniProt Q13177)
CDK5 CDK5R1 p25 (human) = CDK5 CDK5R1 p25 (human) (UniProt Q00535+Q15078)
FGFR3 (human) = FGFR3 (human) (UniProt P22607)
FGFR3 (human), sequence (P22607 whole entry, looked up): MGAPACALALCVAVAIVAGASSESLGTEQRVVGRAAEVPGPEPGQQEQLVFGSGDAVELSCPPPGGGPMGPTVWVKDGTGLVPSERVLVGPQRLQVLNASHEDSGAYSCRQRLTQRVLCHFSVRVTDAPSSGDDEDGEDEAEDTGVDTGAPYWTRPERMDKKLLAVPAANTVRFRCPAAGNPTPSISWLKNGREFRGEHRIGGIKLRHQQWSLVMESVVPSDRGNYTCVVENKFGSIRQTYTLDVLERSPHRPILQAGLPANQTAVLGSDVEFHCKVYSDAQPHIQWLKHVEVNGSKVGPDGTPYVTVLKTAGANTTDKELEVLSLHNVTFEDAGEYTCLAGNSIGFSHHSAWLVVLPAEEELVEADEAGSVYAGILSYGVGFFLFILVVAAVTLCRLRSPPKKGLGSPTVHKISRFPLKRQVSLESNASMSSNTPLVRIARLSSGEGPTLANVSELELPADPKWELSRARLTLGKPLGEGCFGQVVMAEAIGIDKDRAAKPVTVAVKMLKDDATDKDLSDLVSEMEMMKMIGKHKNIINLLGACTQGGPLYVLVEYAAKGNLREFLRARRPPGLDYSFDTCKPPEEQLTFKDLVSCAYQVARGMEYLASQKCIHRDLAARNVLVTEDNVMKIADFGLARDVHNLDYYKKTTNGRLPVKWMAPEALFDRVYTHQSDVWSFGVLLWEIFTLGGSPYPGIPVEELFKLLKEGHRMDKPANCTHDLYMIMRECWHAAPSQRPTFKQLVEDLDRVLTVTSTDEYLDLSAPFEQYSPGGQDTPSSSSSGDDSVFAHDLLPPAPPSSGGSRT

EPHA8 (human) = EPHA8 (human) (UniProt P29322)
JAK2 JH1 JH2 (human) = JAK2 JH1 JH2 (human) (UniProt O60674)
NEK11 (human) = NEK11 (human) (UniProt Q8NG66)
MAPKAPK2 (human) = MAPKAPK2 (human) (UniProt P49137)

KDR (human), sequence (P35968 whole entry, looked up): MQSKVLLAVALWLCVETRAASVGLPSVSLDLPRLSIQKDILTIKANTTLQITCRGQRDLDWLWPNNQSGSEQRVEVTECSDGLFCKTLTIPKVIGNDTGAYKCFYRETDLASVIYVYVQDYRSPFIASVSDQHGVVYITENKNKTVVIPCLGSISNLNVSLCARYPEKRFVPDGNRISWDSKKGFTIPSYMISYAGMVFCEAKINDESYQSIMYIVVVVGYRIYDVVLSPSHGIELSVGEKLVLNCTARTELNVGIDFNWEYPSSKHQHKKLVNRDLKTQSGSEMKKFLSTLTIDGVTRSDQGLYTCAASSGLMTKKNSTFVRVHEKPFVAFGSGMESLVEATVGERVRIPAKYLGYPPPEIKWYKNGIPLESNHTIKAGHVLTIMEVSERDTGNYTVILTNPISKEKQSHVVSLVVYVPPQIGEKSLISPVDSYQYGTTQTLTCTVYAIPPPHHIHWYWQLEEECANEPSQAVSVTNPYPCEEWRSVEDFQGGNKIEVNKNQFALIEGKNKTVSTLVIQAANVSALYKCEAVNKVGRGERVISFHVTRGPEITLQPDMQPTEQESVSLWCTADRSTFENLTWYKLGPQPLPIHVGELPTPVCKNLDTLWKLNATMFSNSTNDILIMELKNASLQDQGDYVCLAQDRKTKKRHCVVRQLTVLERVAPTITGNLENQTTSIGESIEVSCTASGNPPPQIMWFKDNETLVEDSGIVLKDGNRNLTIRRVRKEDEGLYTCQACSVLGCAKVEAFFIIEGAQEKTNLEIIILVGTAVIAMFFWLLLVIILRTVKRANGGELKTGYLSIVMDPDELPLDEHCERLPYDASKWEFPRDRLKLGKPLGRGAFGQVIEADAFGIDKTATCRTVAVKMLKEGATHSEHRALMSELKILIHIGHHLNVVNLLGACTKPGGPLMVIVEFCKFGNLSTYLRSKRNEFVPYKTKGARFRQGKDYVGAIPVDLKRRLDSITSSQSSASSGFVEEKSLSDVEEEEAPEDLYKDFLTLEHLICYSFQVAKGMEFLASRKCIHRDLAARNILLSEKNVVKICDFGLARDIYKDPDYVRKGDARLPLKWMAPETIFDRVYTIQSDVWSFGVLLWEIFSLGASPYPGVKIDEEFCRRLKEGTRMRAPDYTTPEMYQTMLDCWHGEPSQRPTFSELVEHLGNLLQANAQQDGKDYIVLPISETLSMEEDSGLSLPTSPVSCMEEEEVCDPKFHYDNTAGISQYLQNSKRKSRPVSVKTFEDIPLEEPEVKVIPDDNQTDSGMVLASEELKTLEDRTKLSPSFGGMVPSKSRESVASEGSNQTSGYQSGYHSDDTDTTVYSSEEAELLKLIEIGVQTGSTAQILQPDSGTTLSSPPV

## Nc1nnc2[nH]c3ccccc3nc1-2
STK17A (human)
  residual activity: 95.2%
KDR (human)
  residual activity: 95.8%
EPHB2 (human)
  residual activity: 103%
SLK (human)
  residual activity: 92.5%
RPS6KA5 KD2 (human)
  residual activity: 92.4%
GRK5 (human)
  residual activity: 101%
NEK9 (human)
  residual activity: 98.5%
ALK (human)
  residual activity: 96.7%
TXK (human)
  residual activity: 97.6%
TEK (human)
  residual activity: 97%
DYRK1B (human)
  residual activity: 96%
PBK (human)
  residual activity: 106%
FGFR2 (human)
  residual activity: 98.1%
BTK (human)
  residual activity: 93.9%
PNCK (human)
  residual activity: 102%
SRPK1 (human)
  residual activity: 101%
MAP2K2 (human)
  residual activity: 104%
ABL2 (human)
  residual activity: 95.5%
PRKCI (human)
  residual activity: 103%
RPS6KB2 (human)
  residual activity: 102%
CDK1 CCNB1 (human)
  residual activity: 79.6%
DSTYK (human)
  residual activity: 96%
FLT1 (human)
  residual activity: 92.1%
AKT1 (human)
  residual activity: 106%
AURKA (human)
  residual activity: 111%
CDK6 CCND3 (human)
  residual activity: 105%
GSK3A (human)
  residual activity: 91.6%
NEK4 (human)
  residual activity: 97.8%
PRKG2 (human)
  residual activity: 66.7%
CAMK2A (human)
  residual activity: 99.5%
[1]
  residual activity: 107%
NTRK3 (human)
  residual activity: 92.1%
IRAK4 (human)
  residual activity: 94.7%
MAPK11 (human)
  residual activity: 93.8%
CDC42BPB (human)
  residual activity: 100%
PAK2 (human)
  residual activity: 104%
CDK5 CDK5R1 p25 (human)
  residual activity: 85.4%
FGFR3 (human)
  residual activity: 96.5%
EPHA8 (human)
  residual activity: 104%
JAK2 JH1 JH2 (human)
  residual activity: 105%
NEK11 (human)
  residual activity: 110%
MAPKAPK2 (human)
  residual activity: 105%

## Cn1nc2c3c(cccc31)C(=O)c1ccccc1-2
STK17A (human)
  residual activity: 83.7%
KDR (human)
  residual activity: 101%
EPHB2 (human)
  residual activity: 104%
SLK (human)
  residual activity: 103%
RPS6KA5 KD2 (human)
  residual activity: 100%
GRK5 (human)
  residual activity: 93.8%
NEK9 (human)
  residual activity: 96.6%
ALK (human)
  residual activity: 87.4%
TXK (human)
  residual activity: 92%
TEK (human)
  residual activity: 98.2%
DYRK1B (human)
  residual activity: 93.1%
PBK (human)
  residual activity: 108%
FGFR2 (human)
  residual activity: 105%
BTK (human)
  residual activity: 89.5%
PNCK (human)
  residual activity: 101%
SRPK1 (human)
  residual activity: 99.7%
MAP2K2 (human)
  residual activity: 102%
ABL2 (human)
  residual activity: 97.8%
PRKCI (human)
  residual activity: 98.5%
RPS6KB2 (human)
  residual activity: 94.7%
CDK1 CCNB1 (human)
  residual activity: 108%
DSTYK (human)
  residual activity: 101%
FLT1 (human)
  residual activity: 84.3%
AKT1 (human)
  residual activity: 99.1%
AURKA (human)
  residual activity: 89.4%
CDK6 CCND3 (human)
  residual activity: 101%
GSK3A (human)
  residual activity: 91.1%
NEK4 (human)
  residual activity: 89.8%
PRKG2 (human)
  residual activity: 105%
CAMK2A (human)
  residual activity: 106%
[1]
  residual activity: 89.4%
NTRK3 (human)
  residual activity: 71.6%
IRAK4 (human)
  residual activity: 97.3%
MAPK11 (human)
  residual activity: 109%
CDC42BPB (human)
  residual activity: 98%
PAK2 (human)
  residual activity: 102%
CDK5 CDK5R1 p25 (human)
  residual activity: 92.2%
FGFR3 (human)
  residual activity: 95.9%
EPHA8 (human)
  residual activity: 99.4%
JAK2 JH1 JH2 (human)
  residual activity: 95.9%
NEK11 (human)
  residual activity: 105%
MAPKAPK2 (human)
  residual activity: 102%

## CN([C@@H](Cc1ccc(OS(=O)(=O)c2cccc3cnccc23)cc1)C(=O)N1CCN(c2ccccc2)CC1)S(=O)(=O)c1cccc2cnccc12
STK17A (human)
  residual activity: 104%
KDR (human)
  residual activity: 100%
EPHB2 (human)
  residual activity: 103%
SLK (human)
  residual activity: 101%
RPS6KA5 KD2 (human)
  residual activity: 100%
GRK5 (human)
  residual activity: 95.6%
NEK9 (human)
  residual activity: 97.6%
ALK (human)
  residual activity: 96.5%
TXK (human)
  residual activity: 94.3%
TEK (human)
  residual activity: 106%
DYRK1B (human)
  residual activity: 101%
PBK (human)
  residual activity: 99.2%
FGFR2 (human)
  residual activity: 98.1%
BTK (human)
  residual activity: 97.1%
PNCK (human)
  residual activity: 99.7%
SRPK1 (human)
  residual activity: 104%
MAP2K2 (human)
  residual activity: 119%
ABL2 (human)
  residual activity: 98.9%
PRKCI (human)
  residual activity: 93.8%
RPS6KB2 (human)
  residual activity: 96.6%
CDK1 CCNB1 (human)
  residual activity: 108%
DSTYK (human)
  residual activity: 97.4%
FLT1 (human)
  residual activity: 86.5%
AKT1 (human)
  residual activity: 102%
AURKA (human)
  residual activity: 86.2%
CDK6 CCND3 (human)
  residual activity: 105%
GSK3A (human)
  residual activity: 99.8%
NEK4 (human)
  residual activity: 99.5%
PRKG2 (human)
  residual activity: 99.5%
CAMK2A (human)
  residual activity: 107%
[1]
  residual activity: 110%
NTRK3 (human)
  residual activity: 97.5%
IRAK4 (human)
  residual activity: 92.1%
MAPK11 (human)
  residual activity: 98.9%
CDC42BPB (human)
  residual activity: 103%
PAK2 (human)
  residual activity: 99.1%
CDK5 CDK5R1 p25 (human)
  residual activity: 93.5%
FGFR3 (human)
  residual activity: 98.8%
EPHA8 (human)
  residual activity: 99.6%
JAK2 JH1 JH2 (human)
  residual activity: 96.6%
NEK11 (human)
  residual activity: 103%
MAPKAPK2 (human)
  residual activity: 103%

## Cn1cnc2cc3c(Nc4cccc(Br)c4)ncnc3cc21
STK17A (human)
  residual activity: 82.5%
KDR (human)
  residual activity: 71.7%
EPHB2 (human)
  residual activity: 76.2%
SLK (human)
  residual activity: 67.8%
RPS6KA5 KD2 (human)
  residual activity: 93.5%
GRK5 (human)
  residual activity: 109%
NEK9 (human)
  residual activity: 90%
ALK (human)
  residual activity: 92.4%
TXK (human)
  residual activity: 86.7%
TEK (human)
  residual activity: 98.9%
DYRK1B (human)
  residual activity: 98.1%
PBK (human)
  residual activity: 102%
FGFR2 (human)
  residual activity: 98%
BTK (human)
  residual activity: 86.8%
PNCK (human)
  residual activity: 101%
SRPK1 (human)
  residual activity: 96.1%
MAP2K2 (human)
  residual activity: 101%
ABL2 (human)
  residual activity: 37%
PRKCI (human)
  residual activity: 100%
RPS6KB2 (human)
  residual activity: 96.8%
CDK1 CCNB1 (human)
  residual activity: 97.9%
DSTYK (human)
  residual activity: 97.5%
FLT1 (human)
  residual activity: 77.4%
AKT1 (human)
  residual activity: 89.1%
AURKA (human)
  residual activity: 87.8%
CDK6 CCND3 (human)
  residual activity: 107%
GSK3A (human)
  residual activity: 100%
NEK4 (human)
  residual activity: 96.8%
PRKG2 (human)
  residual activity: 63.6%
CAMK2A (human)
  residual activity: 102%
[1]
  residual activity: 112%
NTRK3 (human)
  residual activity: 81.4%
IRAK4 (human)
  residual activity: 89.1%
MAPK11 (human)
  residual activity: 85.9%
CDC42BPB (human)
  residual activity: 104%
PAK2 (human)
  residual activity: 99.8%
CDK5 CDK5R1 p25 (human)
  residual activity: 88%
FGFR3 (human)
  residual activity: 98.6%
EPHA8 (human)
  residual activity: 85.4%
JAK2 JH1 JH2 (human)
  residual activity: 103%
NEK11 (human)
  residual activity: 101%
MAPKAPK2 (human)
  residual activity: 104%
